The target of the test is FAS (Homo sapiens, UniProt P49327). The test is described as follows: FAS assay (Assay #1 residual NADPH detection or Assay #2 CoA detection with thio-reactive coumarin dye). It is filed as biochemical. Conditions: tested generally according to the assays described (Assay #1 or #2); in at least one experimental run; read-out: pIC50 value (inhibition of FAS) (converted). Here is the method:
FAS activity was measured through one of the two following assays.
Inhibition of FAS activity can be measured based on the detection of residual NADPH substrate after the FAS assay is quenched. This assay is run as a 10 μL endpoint assay in 384-well format, where the reaction contains 20 μM malonyl-CoA, 2 μM acetyl-CoA, 30 μM NADPH and 40 nM FAS in 50 mM sodium phosphate, pH 7.0. The assay is run by sequentially dispensing 5 μl of a malonyl-CoA solution, then enzyme solution (containing the acetyl-CoA, and NADPH) into a black, low volume assay plate (Greiner 784076) pre-dispensed with […] compound solutions in DMSO. The reaction is incubated at ambient temperature for 60 minutes, then quenched with 5 μL of a developing solution composed of 90 μM resazurin, 0.3 IU/ml diaphorase in 50 mM sodium phosphate, pH 7.0. The developed reaction is read on a Molecular Devices Analyst or Acquest (or equivalent) plate reader using a 530 nm excitation wavelength filter, a 580 nm emission filter, and 561 nm dichroic filter. The test compounds are prepared in neat DMSO at a concentration of 10 mM. For inhibition curves, compounds are diluted using a three-fold serial dilution and tested at 11 concentrations (e.g. 25 μM-0.42 nM). Curves are analysed using ActivityBase and XLfit, and results are expressed as pIC50 values.
Inhibition of FAS can also be quantified based on the detection of the CoA products with a thio-reactive coumarin dye. This assay is run as a 10 μL endpoint assay in 384-well format, where the reaction contains 20 μM malonyl-CoA, 20 μM acetyl-CoA, 40 μM NADPH and 2 nM FAS in 50 mM sodium phosphate, pH 7.0, and 0.04% Tween-20. The assay is run by adding 5 μL enzyme solution to a black, low volume assay plate (Greiner 784076) pre-dispensed with 100 nl compound solutions in DMSO. After 30 minutes, […] substrate is added, and the reaction incubated at ambient temperature for an additional 60 minutes. The reaction is then quenched with 10 μL of 6M guanidine-HCl containing 50 μM CPM (7-diethylamino-3-(4′-maleimidylphenyl)-4-methylcoumarin (CPM; thio-reactive dye), and incubated for 30 minutes. The plate is read on an Envision (PerkinElmer) or equivalent plate reader using a 380 nm excitation wavelength filter, and a 486 nm emission filter. Data fitting and compound preparations are done as described above.
FAS, sequence (P49327 whole entry): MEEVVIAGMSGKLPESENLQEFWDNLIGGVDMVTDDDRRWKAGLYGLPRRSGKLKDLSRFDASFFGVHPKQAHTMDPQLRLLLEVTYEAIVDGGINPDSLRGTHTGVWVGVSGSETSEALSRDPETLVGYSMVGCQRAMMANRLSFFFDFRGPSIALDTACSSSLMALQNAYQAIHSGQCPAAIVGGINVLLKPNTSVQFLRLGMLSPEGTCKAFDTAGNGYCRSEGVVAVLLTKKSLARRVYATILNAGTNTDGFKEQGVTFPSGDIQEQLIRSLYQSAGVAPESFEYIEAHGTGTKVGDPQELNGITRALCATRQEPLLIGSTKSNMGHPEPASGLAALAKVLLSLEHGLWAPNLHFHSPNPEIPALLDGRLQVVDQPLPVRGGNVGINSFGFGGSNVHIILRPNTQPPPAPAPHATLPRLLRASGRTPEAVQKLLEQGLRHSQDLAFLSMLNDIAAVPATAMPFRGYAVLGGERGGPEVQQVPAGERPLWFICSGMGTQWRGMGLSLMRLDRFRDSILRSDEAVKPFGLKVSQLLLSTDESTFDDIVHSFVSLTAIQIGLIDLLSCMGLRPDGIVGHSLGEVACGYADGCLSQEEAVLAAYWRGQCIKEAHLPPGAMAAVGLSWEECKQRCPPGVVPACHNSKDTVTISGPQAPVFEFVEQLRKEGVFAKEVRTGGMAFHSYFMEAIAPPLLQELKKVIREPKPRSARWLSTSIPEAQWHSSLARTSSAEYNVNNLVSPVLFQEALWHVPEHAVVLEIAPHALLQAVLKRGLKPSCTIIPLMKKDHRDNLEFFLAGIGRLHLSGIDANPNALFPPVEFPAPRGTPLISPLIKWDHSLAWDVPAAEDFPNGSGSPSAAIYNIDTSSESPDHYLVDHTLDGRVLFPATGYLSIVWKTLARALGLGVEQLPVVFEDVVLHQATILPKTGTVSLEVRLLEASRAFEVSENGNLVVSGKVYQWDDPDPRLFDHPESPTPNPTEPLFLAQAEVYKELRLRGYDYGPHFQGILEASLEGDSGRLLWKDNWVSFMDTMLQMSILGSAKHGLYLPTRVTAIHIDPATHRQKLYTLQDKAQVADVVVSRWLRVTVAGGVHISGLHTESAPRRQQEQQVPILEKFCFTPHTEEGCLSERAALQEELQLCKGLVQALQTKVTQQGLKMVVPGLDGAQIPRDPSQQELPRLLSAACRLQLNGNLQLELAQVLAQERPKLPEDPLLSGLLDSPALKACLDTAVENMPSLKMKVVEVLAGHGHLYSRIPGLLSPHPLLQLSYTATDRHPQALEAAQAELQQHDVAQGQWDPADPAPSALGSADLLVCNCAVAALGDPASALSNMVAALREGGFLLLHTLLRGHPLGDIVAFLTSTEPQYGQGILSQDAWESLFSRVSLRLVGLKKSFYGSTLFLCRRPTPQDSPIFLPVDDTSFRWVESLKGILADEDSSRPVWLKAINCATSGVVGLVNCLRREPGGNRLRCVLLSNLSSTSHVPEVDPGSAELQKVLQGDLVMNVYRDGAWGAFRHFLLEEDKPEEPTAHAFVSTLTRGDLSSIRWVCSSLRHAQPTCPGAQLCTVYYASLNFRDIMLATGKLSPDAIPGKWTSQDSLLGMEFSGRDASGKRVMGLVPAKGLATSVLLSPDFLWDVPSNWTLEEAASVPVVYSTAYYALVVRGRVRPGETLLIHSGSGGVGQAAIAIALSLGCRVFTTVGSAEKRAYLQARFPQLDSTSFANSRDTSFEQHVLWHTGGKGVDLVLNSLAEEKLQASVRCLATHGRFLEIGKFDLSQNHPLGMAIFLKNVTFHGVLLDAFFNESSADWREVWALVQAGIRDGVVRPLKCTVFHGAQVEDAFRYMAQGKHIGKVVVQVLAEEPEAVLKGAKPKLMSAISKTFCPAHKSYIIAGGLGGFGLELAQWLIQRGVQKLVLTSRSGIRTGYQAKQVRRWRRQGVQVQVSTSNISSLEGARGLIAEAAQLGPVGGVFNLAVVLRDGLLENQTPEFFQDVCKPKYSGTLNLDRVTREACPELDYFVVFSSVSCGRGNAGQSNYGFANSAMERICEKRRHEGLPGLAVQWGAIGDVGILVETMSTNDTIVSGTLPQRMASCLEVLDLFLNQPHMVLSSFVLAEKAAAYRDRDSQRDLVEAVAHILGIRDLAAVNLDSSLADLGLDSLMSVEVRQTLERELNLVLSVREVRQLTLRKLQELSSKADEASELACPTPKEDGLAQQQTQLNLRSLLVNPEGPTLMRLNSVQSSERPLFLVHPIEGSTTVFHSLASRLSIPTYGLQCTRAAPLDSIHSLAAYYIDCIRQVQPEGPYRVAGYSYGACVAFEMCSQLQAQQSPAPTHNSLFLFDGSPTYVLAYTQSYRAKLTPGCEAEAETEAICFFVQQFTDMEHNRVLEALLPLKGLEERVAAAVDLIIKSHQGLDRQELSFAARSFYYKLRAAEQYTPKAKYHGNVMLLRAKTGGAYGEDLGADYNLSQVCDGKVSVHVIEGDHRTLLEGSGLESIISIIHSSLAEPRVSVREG
For the molecule `COc1ccc2nc(-c3ccc(-c4ccc5cc[nH]c5c4)cc3)n(C[C@@H]3CCN(C(=O)C4CC4)C3)c2c1` [Example 66, 1-{[(3S)-1-(Cyclopropylcarbonyl)-3-pyrrolidinyl]methyl}-2-[4-(1H-indol-6-yl)phenyl]-6-(methyloxy)-1H-benzimidazole], the IC50 was 21.9 nM. With `CN1CCN(C(=O)c2ccc3nc(-c4ccc(-c5ccc6[nH]ccc6c5)cc4)n(C[C@@H]4CCN(C(=O)C5CC5)C4)c3c2)CC1` [Example 107, 1-{[(3S)-1-(Cyclopropylcarbonyl)-3-pyrrolidinyl]methyl}-2-[4-(1H-indol-5-yl)phenyl]-6-[(4-methyl-1-piperazinyl)carbonyl]-1H-benzimidazole], the IC50 is 10 nM. Then `O=C(C1CC1)N1CC[C@@H](Cn2c(-c3ccc(-c4ccc(F)cc4)cc3)nc3cccc(C(F)(F)F)c32)C1` [Example 117, 1-{[(3S)-1-(Cyclopropylcarbonyl)-3-pyrrolidinyl]methyl}-2-(4′-fluoro-4-biphenylyl)-7-(trifluoromethyl)-1H-benzimidazole], with 1450 nM. In the case of `CN1CCN(C(=O)c2ccc3nc(-c4ccc(-c5ccc6cc[nH]c6c5)cc4)n(C[C@@H]4CCN(C(=O)C5CC5)C4)c3c2)CC1` [Example 106, 1-{[(3S)-1-(Cyclopropylcarbonyl)-3-pyrrolidinyl]methyl}-2-[4-(1H-indol-6-yl)phenyl]-6-[(4-methyl-1-piperazinyl)carbonyl]-1H-benzimidazole], the IC50 was 55 nM. Then `O=C(C1CC1)N1CC[C@@H](Cn2c(-c3ccc(-c4ccc5ncsc5c4)cc3)nc3ccccc32)C1` [Example 4, 6-[4-(1-{[(3S)-1-(Cyclopropylcarbonyl)-3-pyrrolidinyl]methyl}-1H-benzimidazol-2-yl)phenyl]-1,3-benzothiazole], with 55 nM; and `Cc1ccc2nc(-c3ccc(-c4ccc5occc5c4)cc3)n(C[C@@H]3CCN(C(=O)C4CC4)C3)c2c1` [Example 83, 2-[4-(1-Benzofuran-5-yl)phenyl]-1-{[(3S)-1-(cyclopropylcarbonyl)-3-pyrrolidinyl]methyl}-6-(methyl)-1H-benzimidazole], with 50.1 nM. Then `Cc1ccc2c(c1)nc(-c1ccc(-c3ccc4[nH]ncc4c3)cc1)n2C[C@@H]1CCN(C(=O)C2CC2)C1` [Example 49, 5-[4-(1-{[(3S)-1-(Cyclopropylcarbonyl)-3-pyrrolidinyl]methyl}-5-methyl-1H-benzimidazol-2-yl)phenyl]-1H-indazole], with 26.9 nM.

For the molecule `O=C(C1CC1)N1CC[C@@H](Cn2c(-c3ccc(-c4ccc5[nH]ccc5c4)cc3)nc3cc(C(F)(F)F)ccc32)C1` [Example 62, 1-{[(3S)-1-(Cyclopropylcarbonyl)-3-pyrrolidinyl]methyl}-2-[4-(1H-indol-5-yl)phenyl]-5-(trifluoromethyl)-1H-benzimidazole], the IC50 is 30.9 nM. Then `O=C(C1CC1)N1CC[C@@H](Cn2c(-c3ccc(-c4ccccc4)cc3)nc3c(Br)cccc32)C1` [Example 33, 2-(4-Biphenylyl)-4-bromo-1-{[(3S)-1-(cyclopropylcarbonyl)-3-pyrrolidinyl]methyl}-1H-benzimidazole], with 135 nM. On to `O=C(C1CC1)N1CC[C@@H](Cn2c(-c3ccc(-c4ccc5cc[nH]c5c4)cc3)nc3c(C(F)(F)F)cccc32)C1` [Example 24, 1-{[(3S)-1-(Cyclopropylcarbonyl)-3-pyrrolidinyl]methyl}-2-[4-(1H-indol-6-yl)phenyl]-4-(trifluoromethyl)-1H-benzimidazole], for which the IC50 is 49 nM.

Consider `O=C(C1CC1)N1CC[C@@H](Cn2c(-c3ccc(-c4ccc5cc[nH]c5c4)cc3)nc3ccc(C(F)(F)F)cc32)C1` [Example 88, 1-{[(3S)-1-(Cyclopropylcarbonyl)-3-pyrrolidinyl]methyl}-2-[4-(1H-indol-6-yl)phenyl]-6-(trifluoromethyl)-1H-benzimidazole], for which the IC50 was 43.7 nM.

Values taken from patent publication US20120208827A1, “BENZIMIDAZOLES AS FATTY ACID SYNTHASE INHIBITORS” (GlaxoSmithKline LLC, priority 2009, published 2012).
